pIC50: −log10 of the molar value. Where a name gives a salt, the structure may show the parent alone.
molecular target: IRAK4 (Homo sapiens (Human), UniProt Q9NWZ3); assay: IRAK4 Kinase Assay (IMAP fluorescence polarization); assay type: biochemical; conditions: GST tagged IRAK4, 100 μM ATP, 30 minutes at 25° C., IMAP FP
Excerpt: Other assays are known in the literature and could be readily performed by those of skill in the art.
The reaction is initiated by the addition of ATP.

Chain of IRAK4 (Q9NWZ3 whole entry): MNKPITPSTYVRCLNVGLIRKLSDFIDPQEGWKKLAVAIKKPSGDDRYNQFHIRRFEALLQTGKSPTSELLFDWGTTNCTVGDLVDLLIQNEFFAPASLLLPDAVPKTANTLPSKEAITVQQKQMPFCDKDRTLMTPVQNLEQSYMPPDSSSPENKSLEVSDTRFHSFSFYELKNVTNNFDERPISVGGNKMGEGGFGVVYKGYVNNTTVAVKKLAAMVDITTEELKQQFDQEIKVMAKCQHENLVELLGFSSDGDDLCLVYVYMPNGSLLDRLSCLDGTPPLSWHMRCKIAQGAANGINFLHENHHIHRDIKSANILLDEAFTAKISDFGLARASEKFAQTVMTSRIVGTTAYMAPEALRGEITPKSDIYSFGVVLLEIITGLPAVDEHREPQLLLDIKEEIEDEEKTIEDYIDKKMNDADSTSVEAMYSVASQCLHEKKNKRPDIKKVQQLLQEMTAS

Structure (SMILES) | pIC50
Cn1cc(NC(=O)c2cnn3ccc(N[C@@H]4CCOC[C@@H]4N)nc23)c(C(N)=O)n1 [Example 2, 5-{[(3R,4R)-3-aminotetrahydro-2H-pyran-4-yl]amino}-N-(3-carbamoyl-1-methyl-1H-pyrazol-4-yl)pyrazolo[1,5-a]pyrimidine-3-carboxamide trifluoroacetate] | 9.22
NC(=O)c1nn(CCO)cc1NC(=O)c1cnn2ccc(N[C@@H]3CCCC[C@@H]3N)nc12 [Example 23, 5-{[(1R,2S)-2-aminocyclohexyl]amino}-N-[3-carbamoyl-1-(2-hydroxyethyl)-1H-pyrazol-4-yl]pyrazolo[1,5-a]pyrimidine-3-carboxamide trifluoroacetate] | 9.00
CC(C)n1cc(NC(=O)c2cnn3ccc(N[C@@H]4CCCC[C@@H]4N)nc23)c(C(N)=O)n1 [Example 22, 5-{[(1R,2S)-2-aminocyclohexyl]amino}-N-[3-carbamoyl-1-(1-methylethyl)-1H-pyrazol-4-yl]pyrazolo[1,5-a]pyrimidine-3-carboxamide trifluoroacetate] | 9.00
NC(=O)c1nn(-c2cccnc2)cc1NC(=O)c1cnn2ccc(N[C@H]3CCCC[C@H]3N)nc12 (relative stereo) [Example 6, 5-{[cis-2-aminocyclohexyl]amino}-N-(3-carbamoyl-1-pyridin-3-yl-1H-pyrazol-4-yl)pyrazolo[1,5-a]pyrimidine-3-carboxamide] | 9.10
Cn1cc(NC(=O)c2cnn3ccc(NC4CCNC4)nc23)c(C(N)=O)n1 (centres unmarked) [Example 14, N-(3-carbamoyl-1-methyl-1H-pyrazol-4-yl)-5-(pyrrolidin-3-ylamino)pyrazolo[1,5-a]pyrimidine-3-carboxamide hydrochloride] | 6.92
COCCn1cc(NC(=O)c2cnn3ccc(N[C@@H]4CCCC[C@@H]4N)nc23)c(C(N)=O)n1 [Example 24, 5-{[(1R,2S)-2-aminocyclohexyl]amino}-N-[3-carbamoyl-1-(2-methoxyethyl)-1H-pyrazol-4-yl]pyrazolo[1,5-a]pyrimidine-3-carboxamide] | 8.52
CN1CCCC(n2cc(NC(=O)c3cnn4ccc(N[C@H]5CCCC[C@H]5N)nc34)c(C(N)=O)n2)C1 (relative stereo) [Example 10, 5-{[cis-2-aminocyclohexyl]amino}-N-[3-carbamoyl-1-(1-methylpiperidin-3-yl)-1H-pyrazol-4-yl]pyrazolo[1,5-a]pyrimidine-3-carboxamide trifluoroacetate] | 7.60
CCn1cc(NC(=O)c2cnn3ccc(N[C@@H]4CCCC[C@@H]4N)nc23)c(C(N)=O)n1 [Example 21, 5-{[(1R,2S)-2-Aminocyclohexyl]amino}-N-(3-carbamoyl-1-ethyl-1H-pyrazol-4-yl)pyrazolo[1,5-a]pyrimidine-3-carboxamide] | 9.22
Cn1cc(NC(=O)c2cnn3ccc(N[C@H]4CS(=O)(=O)CC[C@H]4N)nc23)c(C(N)=O)n1 (relative stereo) [Example 5, 5-{[cis-4-amino-1,1-dioxidotetrahydro-2H-thiopyran-3-yl]amino}-N-(3-carbamoyl-1-methyl-1H-pyrazol-4-yl)pyrazolo[1,5-a]pyrimidine-3-carboxamide trifluoroacetate] | 7.82
Cn1cc(NC(=O)c2cnn3ccc(N[C@H]4CCS(=O)(=O)C[C@H]4N)nc23)c(C(N)=O)n1 (relative stereo) [Example 4, 5-{[cis-3-amino-1,1-dioxidotetrahydro-2H-thiopyran-4-yl]amino}-N-(3-carbamoyl-1-methyl-1H-pyrazol-4-yl)pyrazolo[1,5-a]pyrimidine-3-carboxamide trifluoroacetate] | 8.30
CN1CCC(n2cc(NC(=O)c3cnn4ccc(N[C@H]5CCCC[C@H]5N)nc34)c(C(N)=O)n2)CC1 (relative stereo) [Example 19, 5-{[cis-2-Aminocyclohexyl]amino}-N-[3-carbamoyl-1-(1-methylpiperidin-4-yl)-1H-pyrazol-4-yl]pyrazolo[1,5-a]pyrimidine-3-carboxamide] | 8.70
CS(=O)(=O)N1CCCC(n2cc(NC(=O)c3cnn4ccc(N[C@H]5CCCC[C@H]5N)nc34)c(C(N)=O)n2)C1 (relative stereo) [Example 20, 5-{[cis-2-aminocyclohexyl]amino}-N-{3-carbamoyl-1-[1-(methylsulfonyl)piperidin-3-yl]-1H-pyrazol-4-yl}pyrazolo[1,5-a]pyrimidine-3-carboxamide trifluoroacetate] | 8.40
CS(=O)(=O)N1CCC(n2cc(NC(=O)c3cnn4ccc(N[C@H]5CCCC[C@H]5N)nc34)c(C(N)=O)n2)CC1 (relative stereo) [Example 18, 5-{[cis-2-Aminocyclohexyl]amino}-N-{3-carbamoyl-1-[1-(methylsulfonyl)piperidin-4-yl]-1H-pyrazol-4-yl}pyrazolo[1,5-a]pyrimidine-3-carboxamide] | 8.70

Results, then the compound that gave them:

pIC50 | Structure (SMILES)
< 5.30 | NC(=O)c1cc(Br)ccc1NC(=O)c1cnn2cccnc12 [Example 55, N-(4-bromo-2-carbamoylphenyl)pyrazolo[1,5-a]pyrimidine-3-carboxamide hydrochloride]
6.15 | NC(=O)c1n[nH]cc1NC(=O)c1cnn2cccnc12 [Example 53, N-(3-carbamoyl-1H-pyrazol-4-yl)pyrazolo[1,5-a]pyrimidine-3-carboxamide trifluoroacetate]
6.62 | Cn1cc(NC(=O)c2cnn3ccc(N4CCOCC4)nc23)c(C(N)=O)n1 [Example 30, N-(3-carbamoyl-1-methyl-1H-pyrazol-4-yl)-5-morpholin-4-ylpyrazolo[1,5-a]pyrimidine-3-carboxamide hydrochloride]
9.05 | Cn1cc(NC(=O)c2ccc3cnc(NCCN)nn23)c(C(N)=O)n1 [Example 58, 2-[(2-Aminoethyl)amino]-N-(3-carbamoyl-1-methyl-1H-pyrazol-4-yl)pyrrolo[2,1-f][1,2,4]triazine-7-carboxamide]
6.74 | Cn1cc(NC(=O)c2cnn3ccc(NC4CCCCC4)nc23)c(C(N)=O)n1 [Example 26, N-(3-carbamoyl-1-methyl-1H-pyrazol-4-yl)-5-(cyclohexylamino)pyrazolo[1,5-a]pyrimidine-3-carboxamide trifluoroacetate]
7.60 | NC(=O)c1nn(-c2ccncc2)cc1NC(=O)c1cnn2ccc(N3CCNCC3)nc12 [Example 34, N-(3-carbamoyl-1-pyridin-4-yl-1H-pyrazol-4-yl)-5-piperazin-1-ylpyrazolo[1,5-a]pyrimidine-3-carboxamide trifluoroacetate]
7.23 | NC(=O)c1nn(-c2cccnc2)cc1NC(=O)c1cnn2cccnc12 [Example 44, N-(3-carbamoyl-1-pyridin-3-yl-1H-pyrazol-4-yl)pyrazolo[1,5-a]pyrimidine-3-carboxamide]
6.00 | NC(=O)c1nn(-c2ccccn2)cc1NC(=O)c1cnn2ccc(N3CCNCC3)nc12 [Example 37, N-(3-Carbamoyl-1-pyridin-2-yl-1H-pyrazol-4-yl)-5-piperazin-1-ylpyrazolo[1,5-a]pyrimidine-3-carboxamide]
5.09 | NC(=O)c1ccncc1NC(=O)c1cnn2cccnc12 [Example 45, N-(4-carbamoylpyridin-3-yl)pyrazolo[1,5-a]pyrimidine-3-carboxamide hydrochloride]
8.52 | NC(=O)c1nn(CCO)cc1NC(=O)c1ccc2cnc(N[C@@H]3CCCC[C@@H]3N)nn12 [Example 63, 2-{[(1R,2S)-2-aminocyclohexyl]amino}-N-[3-carbamoyl-1-(2-hydroxyethyl)-1H-pyrazol-4-yl]pyrrolo[2,1-f][1,2,4]triazine-7-carboxamide trifluoroacetate]
5.46 | NC(=O)c1sccc1NC(=O)c1cnn2cccnc12 [Example 50, N-(2-carbamoylthiophen-3-yl)pyrazolo[1,5-a]pyrimidine-3-carboxamide hydrochloride]
9.00 | CCn1cc(NC(=O)c2ccc3cnc(N[C@@H]4CCCC[C@@H]4N)nn23)c(C(N)=O)n1 [Example 62, 2-{[(1R,2S)-2-aminocyclohexyl]amino}-N-(3-carbamoyl-1-ethyl-1H-pyrazol-4-yl)pyrrolo[2,1-f][1,2,41triazine-7-carboxamide trifluoroacetate]
8.52 | NC(=O)Cn1cc(NC(=O)c2cnn3ccc(N[C@@H]4CCCC[C@@H]4N)nc23)c(C(N)=O)n1 [Example 32, 5-{[(1R,2S)-2-Aminocyclohexyl]amino}-N-[1-(2-amino-2-oxoethyl)-3-carbamoyl-1H-pyrazol-4-yl]pyrazolo[1,5-a]pyrimidine-3-carboxamide]
8.70 | NCCNc1ncc2ccc(C(=O)Nc3cn(CCO)nc3C(N)=O)n2n1 [Example 59, 2-[(2-aminoethyl)amino]-N-[3-carbamoyl-1-(2-hydroxyethyl)-1H-pyrazol-4-yl]pyrrolo[2,1-f][1,2,4]triazine-7-carboxamide trifluoroacetate]
7.16 | Cn1cc(NC(=O)c2csc3nccnc23)c(C(N)=O)n1 [Example 56, N-(3-Carbamoyl-1-methyl-1H-pyrazol-4-yl)thieno[2,3-b]pyrazine-7-carboxamide]
6.40 | Cn1cc(NC(=O)c2cnn3ccc(N4CCNC(=O)C4)nc23)c(C(N)=O)n1 [Example 38, N-(3-Carbamoyl-1-methyl-1H-pyrazol-4-yl)-5-(3-oxopiperazin-1-yl)pyrazolo[1,5-a]pyrimidine-3-carboxamide]
7.89 | CNC(=O)c1nn(C)cc1NC(=O)c1ccc2cnc(N[C@@H]3CCCC[C@@H]3N)nn12 [Example 64, 2-{[(1R,2S)-2-aminocyclohexyl]amino}-N-[1-methyl-3-(methylcarbamoyl)-1H-pyrazol-4-yl]pyrrolo[2,1-f][1,2,4]triazine-7-carboxamide trifluoroacetate]
5.12 | NC(=O)c1ccccc1NC(=O)c1cnn2cccnc12 [Example 52, N-(2-carbamoylphenyl)pyrazolo[1,5-a]pyrimidine-3-carboxamide hydrochloride]
7.43 | Cn1cc(NC(=O)c2cnn3ccc(N4CCNCC4)nc23)c(C(N)=O)n1 [Example 31, N-(3-carbamoyl-1-methyl-1H-pyrazol-4-yl)-5-piperazin-1-ylpyrazolo[1,5-a]pyrimidine-3-carboxamide hydrochloride]

— patent US10155765B2, “Carboxamide inhibitors of IRAK4 activity” (MERCK SHARP & DOHME CORP., priority 2015, dated 2018)
